Calls of active or inactive are those of the source. The rule behind the calls is not given here.
Molecular target: Luciferin 4-monooxygenase (Photinus pyralis) (UniProt P08659)
Test: inhibition of purified Photinus pyralis luciferase – biochemical, luminescence, dose response (AID 1891)
Conditions: purified firefly luciferase

SMILES	IC50
Nc1ncnc2c1ncn2[C@@H]1O[C@H](CO)[C@@H](O)[C@H]1O	> 11.2 µM (inactive)
CCNC(=O)C1OC(n2cnc3c(N)ncnc32)C(O)C1O (centres undefined)	> 11.2 µM (inactive)
CCNC(=O)[C@H]1O[C@@H](n2cnc3c(N)ncnc32)[C@H](O)[C@@H]1O	> 11.2 µM (inactive)
Nc1ncnc2c1ncn2C1OC(CO)C(O)C1O (centres undefined)	> 11.2 µM (inactive)
